Laboratory results: US8722849B2, “Polypeptides” (Novo Nordisk A/S, priority 2011, dated 2014)
Where two headings read alike, the source gives them in different places. Starred links: 1 amine or outer side, 2 acyl side, 3 side chain; linkers in the order of their positions; H or OH if unused. Positions of bridges follow the written chain, without caps; N, C: chain ends. Residues, ends and D or L forms follow the SMILES beside them. *: point of attachment. C20 diacid = O=C(O)CCCCCCCCCCCCCCCCCCC(=O)*; γGlu = O=C(O)[C@H](CCC(=O)[*:2])N[*:1]

Assays:
[1] = target: T1, human amylin receptor (amylin 3(a) receptor: human calcitonin receptor + RAMP-3) (Homo sapiens, UniProt O60896+P30988); assay: Assay (II)a functional CRE-luciferase assay, human amylin receptor; type: cell-based; settings: Table 2; BHK amylin 3(a)-receptor/CRE-luc cells
T1 construct: expressed in transfected cells; host or cells: BHK570
T1 sequence (P30988 25-474): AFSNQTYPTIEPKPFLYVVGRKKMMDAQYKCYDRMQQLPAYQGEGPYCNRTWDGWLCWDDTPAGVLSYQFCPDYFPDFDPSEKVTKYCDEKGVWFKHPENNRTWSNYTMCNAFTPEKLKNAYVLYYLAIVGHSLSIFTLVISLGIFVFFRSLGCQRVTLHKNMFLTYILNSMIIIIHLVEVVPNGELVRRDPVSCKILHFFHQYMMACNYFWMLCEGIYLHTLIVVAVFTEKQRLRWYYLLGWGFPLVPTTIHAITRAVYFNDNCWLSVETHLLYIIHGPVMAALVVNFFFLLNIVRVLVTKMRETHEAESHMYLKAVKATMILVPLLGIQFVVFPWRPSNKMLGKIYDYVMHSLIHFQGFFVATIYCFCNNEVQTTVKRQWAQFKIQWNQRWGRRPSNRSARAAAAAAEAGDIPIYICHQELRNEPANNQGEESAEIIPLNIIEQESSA
T1 sequence (O60896 24-148 partner): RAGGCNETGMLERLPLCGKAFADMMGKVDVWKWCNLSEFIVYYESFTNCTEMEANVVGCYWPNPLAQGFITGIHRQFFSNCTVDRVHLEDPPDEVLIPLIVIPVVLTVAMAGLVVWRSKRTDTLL

[2] = target: T2, human calcitonin receptor (Homo sapiens, UniProt P30988); assay: Assay (II)a functional CRE-luciferase assay, human calcitonin receptor; type: cell-based; settings: Table 11; read-out: CTa receptor human EC50
T2 construct: expressed in transfected cells; host or cells: BHK570
T2 sequence (P30988 25-474): T1 sequence (P30988 25-474)

[3] = Assay (III) ThT fibrillation assay for physical stability; type: physicochemical
Outline: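 Freshly prepared formulations, pH-adjusted, with 1 μM ThT; four or eight replicates incubated at 37 °C under 960 rpm orbital shaking. Fluorescence (ex 444/em 485 nm) read every 20 min; […]. Peptide concentration measured by RP-HPLC before and after the run.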

[4] = Assay (IV) determination of solubility; type: physicochemical
Outline: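 Solubility was profiled across pH 3.0–8.0 after 18 hours at room temperature: a ~500 nmol/ml aqueous polypeptide solution was diluted 1:1 into 100 mM glycylglycine or bistrispropane buffers. After centrifugation, HPLC gave the dissolved concentration.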

## CC[C@H](C)[C@H](NC(=O)[C@@H]1CCCN1C(=O)CNC(=O)[C@H](Cc1ccccc1)NC(=O)[C@H](CC(N)=O)NC(=O)[C@H](CCC(N)=O)NC(=O)[C@H](CO)NC(=O)[C@H](CO)NC(=O)[C@H](Cc1c[nH]cn1)NC(=O)[C@H](CCCNC(=N)N)NC(=O)[C@H](CC(C)C)NC(=O)[C@H](Cc1ccccc1)NC(=O)[C@H](CCC(=O)O)NC(=O)[C@H](C)NC(=O)[C@H](CC(C)C)NC(=O)[C@H](CCCNC(=N)N)NC(=O)[C@H](CCC(N)=O)NC(=O)[C@@H](NC(=O)[C@H](C)NC(=O)[C@@H]1CSSC[C@H](NC(=O)[C@H](CCC(=O)O)NC(=O)[C@H](CCCNC(=N)N)NC(=O)[C@H](CCC(=O)O)NC(=O)CC[C@H](NC(=O)CCCCCCCCCCCCCCCCCCC(=O)O)C(=O)O)C(=O)N[C@@H](CC(N)=O)C(=O)N[C@@H]([C@@H](C)O)C(=O)N[C@@H](C)C(=O)N[C@@H]([C@@H](C)O)C(=O)N1)[C@@H](C)O)C(=O)N[C@@H](CC(C)C)C(=O)N1CCC[C@H]1C(=O)N1CCC[C@H]1C(=O)N[C@H](C(=O)N[C@@H](CCC(N)=O)C(=O)N[C@H](C(=O)NCC(=O)N[C@@H](CO)C(=O)N[C@@H](CCC(N)=O)C(=O)N[C@H](C(=O)N1CCC[C@H]1C(N)=O)[C@@H](C)O)C(C)C)[C@@H](C)O [Example 163, N-alpha-[(S)-4-Carboxy-4-(19-carboxynonadecanoylamino)butyryl]-Glu-Arg-[Glu1,Glu14,Arg17,Gln21,Gln31,Gln35,Pro37]-pramlintide] ({C20 diacid-γGlu}-ERECNTATCATQRLAEFLRHSSQNFGPILPPTQVGSQTP-NH2; disulfide 4-9)
[1]
  EC50: 1.06 nM
[2]
  EC50: 3.71 nM
[3]; Table 8
  ThT pH 4.0 lag time: >45 h
[3]; Table 9
  ThT pH 4.0 lag time: >45 h
[3]; ThT fibrillation assay
  ThT pH 4.0 lag time: >45 h
  ThT pH 4.0 lag time (h): >45 h
[4]; bistrispropane buffer, pH 6, pH 6.0, read-out: Solubility pH 6.0
  solubility at 18 h: > 200 µM
[4]; bistrispropane buffer, pH 6.5, pH 6.5, read-out: Solubility pH 6.5
  solubility at 18 h: > 200 µM
[4]; bistrispropane buffer, pH 7, pH 7.0, 18 hours at room temperature, Table 3, read-out: Solubility pH 7.0
  solubility at 18 h: > 200 µM
[4]; bistrispropane buffer, pH 7, pH 7.0, Table 8, read-out: Solubility pH 7.0
  solubility at 18 h: > 200 µM
[4]; bistrispropane buffer, pH 7, pH 7.0, Table 9, read-out: Solubility pH 7.0
  solubility at 18 h: > 200 µM
[4]; bistrispropane buffer, pH 7, pH 7.0, read-out: Solubility pH 7.0
  solubility at 18 h: > 200 µM
[4]; bistrispropane buffer, pH 7.5, pH 7.5, Table 9, read-out: Solubility pH 7.5
  solubility at 18 h: > 200 µM
[4]; bistrispropane buffer, pH 7.5, pH 7.5, read-out: Solubility pH 7.5
  solubility at 18 h: > 200 µM
[4]; bistrispropane buffer, pH 8, pH 8.0, read-out: Solubility pH 8.0
  solubility at 18 h: > 200 µM
[4]; glycylglycine buffer, pH 3, pH 3.0, read-out: Solubility pH 3.0
  solubility at 18 h: > 200 µM
[4]; glycylglycine buffer, pH 4, pH 4.0, 18 hours at room temperature, Table 2, read-out: Solubility pH 4.0
  solubility at 18 h: > 200 µM
[4]; glycylglycine buffer, pH 4, pH 4.0, read-out: Solubility pH 4.0
  solubility at 18 h: > 200 µM
[4]; glycylglycine buffer, pH 5, pH 5.0, read-out: Solubility pH 5.0
  solubility at 18 h: > 200 µM
